# Source: ChEMBL document CHEMBL2021761, “Imidazonaphthyridine systems (part 2): Functionalization of the phenyl ring linked to the pyridine pharmacophore and its replacement by a pyridinone ring produces intriguing differences in cytocidal activity” (Eur J Med Chem, 2012)
# The source made the active and inactive calls. The rule behind the calls is not given here.
# Columns and labels:
# M21 = test: Cytocidal activity against human M21 cells assessed as growth inhibition after 48 hrs by SRB assay; assay type: functional; details: M21, 48 h
# HT-29 = test: Cytocidal activity against human HT-29 cells assessed as growth inhibition after 48 hrs by SRB assay; assay type: functional; details: HT-29, 48 h
# MCF7 = test: Cytocidal activity against human MCF7 cells assessed as growth inhibition after 48 hrs by SRB assay; assay type: functional; details: MCF7, 48 h
# HT-1080 = test: Cytocidal activity against human HT1080 cells assessed as growth inhibition after 48 hrs by SRB assay; assay type: functional; details: HT-1080, 48 h
# [1] = biological target: T1, DNA topoisomerase 1 (Homo sapiens) (UniProt P11387); test: Inhibition of recombinant human topoisomerase 1-mediated unwinding of supercoiled plasmid DNA assessed as DNA intercalation at 50 uM after 2 hrs by gel electrophoresis
# T1 sequence (whole entry): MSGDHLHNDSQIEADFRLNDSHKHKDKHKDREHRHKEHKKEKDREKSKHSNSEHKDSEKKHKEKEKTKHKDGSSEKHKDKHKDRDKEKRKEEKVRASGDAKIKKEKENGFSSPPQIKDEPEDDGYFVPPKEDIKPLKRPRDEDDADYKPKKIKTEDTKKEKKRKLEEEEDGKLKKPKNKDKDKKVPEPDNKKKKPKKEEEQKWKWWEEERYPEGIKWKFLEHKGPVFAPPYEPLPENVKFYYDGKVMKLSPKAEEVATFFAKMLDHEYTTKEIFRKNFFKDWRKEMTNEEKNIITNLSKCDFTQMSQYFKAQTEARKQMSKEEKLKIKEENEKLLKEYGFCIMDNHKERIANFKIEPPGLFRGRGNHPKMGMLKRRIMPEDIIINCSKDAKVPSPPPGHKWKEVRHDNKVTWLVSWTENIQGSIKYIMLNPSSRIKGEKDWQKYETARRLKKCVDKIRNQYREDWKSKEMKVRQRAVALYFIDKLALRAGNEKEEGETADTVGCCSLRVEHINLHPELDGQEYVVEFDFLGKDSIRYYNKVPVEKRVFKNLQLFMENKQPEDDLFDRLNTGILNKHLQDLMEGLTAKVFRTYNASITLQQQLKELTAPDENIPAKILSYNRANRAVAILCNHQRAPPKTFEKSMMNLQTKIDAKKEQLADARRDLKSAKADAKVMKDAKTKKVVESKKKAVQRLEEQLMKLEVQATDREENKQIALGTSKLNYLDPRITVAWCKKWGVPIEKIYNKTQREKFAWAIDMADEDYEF
# [2] = biological target: T1, DNA topoisomerase 1 (Homo sapiens); test: Inhibition of recombinant human topoisomerase 1-mediated unwinding of supercoiled plasmid DNA assessed as DNA intercalation at 25 uM after 2 hrs by gel electrophoresis
# [3] = Dissociation constant, pKa of the compound; assay type: physicochemical
# [4] = biological target: T1, DNA topoisomerase 1 (Homo sapiens); test: Inhibition of recombinant human topoisomerase 1-mediated unwinding of supercoiled plasmid DNA assessed as DNA intercalation at 100 to 200 uM after 2 hrs by gel electrophoresis
# [5] = biological target: T1, DNA topoisomerase 1 (Homo sapiens); test: Inhibition of recombinant human topoisomerase 1-mediated unwinding of supercoiled plasmid DNA assessed as DNA intercalation after 2 hrs by gel electrophoresis
# [6] = biological target: T1, DNA topoisomerase 1 (Homo sapiens); test: Inhibition of recombinant human topoisomerase 1-mediated unwinding of supercoiled plasmid DNA assessed as formation of nicked open circular DNA at 12.5 to 100 uM after 2 hrs by gel electrophoresis
# [7] = biological target: T1, DNA topoisomerase 1 (Homo sapiens); test: Inhibition of recombinant human topoisomerase 1-mediated unwinding of supercoiled plasmid DNA assessed as DNA intercalation at 12.5 to 100 uM by gel electrophoresis; details: TDE = time-dependent effect
SMILES,GI50 (M21),GI50 (HT-29),GI50 (MCF7),GI50 (HT-1080),also measured
COc1ccc(-c2ccc3ccn4ccnc4c3n2)cc1,5 µM,5.1 µM,6.9 µM,5.2 µM,inhibition [1]: Active; inhibition [2]: Active
Cc1cc2ccn3ccnc3c2nc1C,–,–,–,–,pKa [3]: 4.63
COc1ccc(-c2c[nH]c3ccn4ccnc4c3c2=O)cc1,1.3 µM,8.6 µM,1.1 µM,1.2 µM,inhibition [1]: inactive; inhibition [2]: inactive; inhibition [4]: inactive
COc1cc(-c2c[nH]c3ccn4ccnc4c3c2=O)cc(OC)c1OC,82.7 µM,62.7 µM,71.9 µM,92.5 µM,–
CCOC(=O)c1c[nH]c2c(ccn3cc(-c4ccccc4)nc23)c1=O,> 100 µM,> 100 µM,> 100 µM,> 100 µM,–
CCOC(=O)c1c[nH]c2ccn3cc(-c4ccccc4)nc3c2c1=O,13.4 µM,21.6 µM,20.5 µM,10.4 µM,–
CCBr,–,–,–,–,inhibition [5]: Active
c1ccc2cc3nc4c(ccn5ccnc45)cc3cc2c1,–,–,–,–,pKa [3]: 2.43
COc1cc(-c2ccc3ccn4ccnc4c3n2)cc(OC)c1OC,24.5 µM,27.8 µM,30.7 µM,29.2 µM,inhibition [6]: inactive; inhibition [1]: Active; inhibition [7]: tde; inhibition [2]: Active
CCOC(=O)c1c[nH]c2c(ccn3cc(C)nc23)c1=O,> 100 µM,> 100 µM,> 100 µM,> 100 µM,–
COc1cc(NS(C)(=O)=O)ccc1Nc1c2ccccc2nc2ccccc12 [AMSACRINE],–,–,5.6 µM,1.6 µM,–
Cc1ccc2ccn3ccnc3c2n1,–,–,–,–,pKa [3]: 4.23
CCOC(=O)c1c[nH]c2c(ccn3cc(C(C)C)nc23)c1=O,> 100 µM,> 100 µM,> 100 µM,> 100 µM,–
c1ccc2c(c1)CCc1cc3ccn4ccnc4c3nc1-2,–,–,–,–,pKa [3]: 2.43
COc1ccc(-c2c[nH]c3c(ccn4ccnc34)c2=O)cc1,> 100 µM,> 100 µM,> 100 µM,> 100 µM,–
O=c1c(-c2ccccc2)c[nH]c2c1ccn1ccnc21,> 100 µM,> 100 µM,> 100 µM,> 100 µM,–

SMILES,GI50 (M21),GI50 (HT-29),GI50 (MCF7),GI50 (HT-1080),also measured
COc1cc(-c2c[nH]c3c(ccn4ccnc34)c2=O)cc(OC)c1OC,> 100 µM,> 100 µM,> 100 µM,> 100 µM,–
c1ccc2c(c1)CCc1nc3c(ccn4ccnc34)cc1-2,–,–,–,–,pKa [3]: 3.53
CCOC(=O)C1CCc2nc3c(ccn4ccnc34)cc2C1 (centres undefined),–,–,–,–,pKa [3]: 4.08
Clc1ccc(-c2ccc3ccn4ccnc4c3n2)cc1,4.7 µM,3.4 µM,7.1 µM,6.9 µM,inhibition [1]: Active; inhibition [2]: Active
O=C1CCCc2nc3c(ccn4ccnc34)cc21,–,–,–,–,pKa [3]: 2
O=c1c(-c2ccccc2)c[nH]c2ccn3ccnc3c12,40.7 µM,34.2 µM,20 µM,19.7 µM,–
CCOC(=O)c1c[nH]c2ccn3cc(C)nc3c2c1=O,88.5 µM,63.2 µM,98.5 µM,72.9 µM,–
Cc1ccc(-c2ccc3ccn4ccnc4c3n2)cc1,6.4 µM,5.1 µM,7.6 µM,10.7 µM,inhibition [1]: inactive; inhibition [2]: inactive; inhibition [4]: inactive
CCOC(=O)c1c[nH]c2ccn3ccnc3c2c1=O,0.8 µM,4.5 µM,0.3 µM,0.3 µM,inhibition [1]: inactive; inhibition [2]: inactive; inhibition [4]: inactive
CCOC(=O)c1c[nH]c2c(ccn3cc(-c4cccc(OC)c4)nc23)c1=O,> 100 µM,> 100 µM,> 100 µM,> 100 µM,–
CCOC(=O)c1c[nH]c2ccn3cc(-c4cccc(OC)c4)nc3c2c1=O,93.4 µM,71.1 µM,98 µM,> 100 µM,–
c1cn2ccc3cc4c(nc3c2n1)CCCC4,–,–,–,–,pKa [3]: 4.59
c1ccc(-c2ccc3ccn4ccnc4c3n2)cc1,–,–,–,54.7 µM,inhibition [6]: inactive; pKa [3]: 1.96; inhibition [1]: Active; inhibition [7]: tde; inhibition [2]: Active
CCOC(=O)c1c[nH]c2ccn3cc(C(C)C)nc3c2c1=O,26.9 µM,43.7 µM,37.3 µM,22 µM,–
CCOC(=O)c1c[nH]c2c(ccn3ccnc23)c1=O,> 100 µM,> 100 µM,> 100 µM,> 100 µM,–
